According to ChEMBL document CHEMBL1131026, “D-amino acid containing, high-affinity inhibitors of recombinant human calpain I” (J Med Chem, 1998):
Square brackets hold non-standard residues; d marks the D form. Peptide text beside a SMILES is read from it. * marks the point of attachment. d(hPhe) = N[C@H](CCc1ccccc1)C(=O)O; d2Thi = N[C@H](Cc1cccs1)C(=O)O; dPhg = N[C@@H](C(=O)O)c1ccccc1; Abu = CC[C@H](N)C(=O)O; Bn = c1ccc(C*)cc1; Ms = CS(=O)(=O)*

Tests used:
[1] = biological target: T1, Calpain-1 catalytic subunit (Homo sapiens, UniProt P07384); test: Inhibitory activity against recombinant human Calpain-I receptor
T1 sequence (P07384 whole entry): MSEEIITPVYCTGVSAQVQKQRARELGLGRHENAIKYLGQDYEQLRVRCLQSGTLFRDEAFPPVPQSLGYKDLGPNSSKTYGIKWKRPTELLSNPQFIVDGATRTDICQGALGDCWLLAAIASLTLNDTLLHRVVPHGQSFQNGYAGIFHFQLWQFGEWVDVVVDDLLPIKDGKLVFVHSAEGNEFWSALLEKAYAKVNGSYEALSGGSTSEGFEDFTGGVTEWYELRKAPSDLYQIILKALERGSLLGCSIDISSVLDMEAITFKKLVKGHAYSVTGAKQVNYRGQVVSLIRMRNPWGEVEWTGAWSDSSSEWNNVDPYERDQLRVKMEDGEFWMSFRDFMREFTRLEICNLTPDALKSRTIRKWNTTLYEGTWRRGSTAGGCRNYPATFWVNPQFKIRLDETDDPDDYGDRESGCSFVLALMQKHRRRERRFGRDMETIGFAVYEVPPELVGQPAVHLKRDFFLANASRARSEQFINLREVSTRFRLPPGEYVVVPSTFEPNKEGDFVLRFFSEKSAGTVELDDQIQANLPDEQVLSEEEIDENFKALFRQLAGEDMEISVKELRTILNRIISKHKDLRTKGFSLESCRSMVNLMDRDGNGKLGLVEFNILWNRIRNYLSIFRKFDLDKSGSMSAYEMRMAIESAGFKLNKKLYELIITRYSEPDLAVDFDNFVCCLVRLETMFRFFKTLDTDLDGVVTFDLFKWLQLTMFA

Cathepsin B = Cathepsin B (Homo sapiens, UniProt P07858); test: Inhibitory activity against cathepsin B receptor in human liver
[2] = biological target: T1, Calpain-1 catalytic subunit; test: Inhibition of intracellular Calpain-I receptor using intact cell assay system; format: cell-based
[3] = biological target: Prothrombin (Homo sapiens) (UniProt P00734); test: Inhibitory activity against human plasma thrombin at 10 uM; format: cell-free
[4] = biological target: Chymotrypsinogen A (Bos taurus) (UniProt P00766); test: Inhibitory activity against Bovine pancreas alpha-chymotrypsin at 10 uM

Row | Ki [1] [nM] | Ki (Cathepsin B) [nM] | IC50 [2] [nM] | inhibition [3] [%] | inhibition [4] [%] | Structure (SMILES)
1 | 22 | – | – | – | – | O=C[C@H](Cc1ccccc1)NC(=O)[C@@H](COCc1ccccc1)NS(=O)(=O)c1ccccc1
2 | 8 | 32 | 700 | 0 | 23 | CS(=O)(=O)N[C@H](COCc1ccccc1)C(=O)N[C@H](C=O)Cc1ccccc1
3 | 130 | – | – | – | – | CCNC(=O)C(=O)[C@H](Cc1ccccc1)NC(=O)[C@@H](COCc1ccccc1)NS(C)(=O)=O
4 | 370 | – | – | – | – | CN([C@H](COCc1ccccc1)C(=O)N[C@H](C=O)Cc1ccccc1)S(C)(=O)=O
5 | 9 | 45 | 400 | 9 | 15 | CCS(=O)(=O)N[C@H](COCc1ccccc1)C(=O)N[C@H](C=O)Cc1ccccc1
6 | 2 | 4 | 400 | 0 | 13 | CS(=O)(=O)N[C@H](COCc1ccccc1)C(=O)N[C@H](C=O)CCCCNS(=O)(=O)c1ccccc1
7 | 9 | 44 | 500 | 0 | 3 | CC(OCc1ccccc1)[C@@H](NS(C)(=O)=O)C(=O)N[C@H](C=O)Cc1ccccc1 (some centres not stated)
8 | 9 | – | – | – | – | O=C[C@H](Cc1ccccc1)NC(=O)[C@@H](COCc1ccccc1)NS(=O)(=O)c1cccs1
9 | 11 | – | – | – | – | CS(=O)(=O)N[C@H](CS(=O)(=O)Cc1ccccc1)C(=O)N[C@H](C=O)Cc1ccccc1
10 | 11 | 23 | 300 | 0 | 0 | CS(=O)(=O)N[C@H](Cc1cccs1)C(=O)N[C@H](C=O)Cc1ccccc1 (Ms-[d2Thi]-Phe-aldehyde)
11 | 28 | – | – | – | – | CS(=O)(=O)N[C@H](CCc1ccccc1)C(=O)N[C@H](C=O)Cc1ccccc1 (Ms-[d(hPhe)]-Phe-aldehyde)
12 | 6 | 41 | 800 | 7 | 16 | CS(=O)(=O)N[C@H](CSCc1ccccc1)C(=O)N[C@H](C=O)Cc1ccccc1 (Ms-[dC](Bn)-Phe-aldehyde)
13 | 11 | 120 | 600 | 0 | 12 | CS(=O)(=O)N[C@H](Cc1ccccc1)C(=O)N[C@H](C=O)Cc1ccccc1 (Ms-[dF]-Phe-aldehyde)
14 | 29 | – | – | – | – | CC(C)C[C@@H](NS(C)(=O)=O)C(=O)N[C@H](C=O)Cc1ccccc1 (Ms-[dL]-Phe-aldehyde)
15 | 9 | – | – | – | – | CS(=O)(=O)N[C@@H](C(=O)N[C@H](C=O)Cc1ccccc1)c1ccccc1 (Ms-[dPhg]-Phe-aldehyde)
16 | 66 | – | – | – | – | CC(C)C[C@@H](C=O)NC(=O)[C@@H](COCc1ccccc1)NS(C)(=O)=O (Ms-[dS](Bn)-Leu-aldehyde)
17 | 4 | 45 | 700 | 0 | 0 | CS(=O)(=O)N[C@H](COCc1ccccc1)C(=O)N[C@H](C=O)Cc1ccc(OCc2ccccc2)cc1 (Ms-[dS](Bn)-Tyr(Bn)-aldehyde)
18 | 36 | – | – | – | – | CC[C@@H](C=O)NC(=O)[C@@H](COCc1ccccc1)NS(C)(=O)=O (Ms-[dS](Bn)-[Abu]-aldehyde)
19 | 10 | – | – | – | – | CS(=O)(=O)N[C@H](Cc1c[nH]c2ccccc12)C(=O)N[C@H](C=O)Cc1ccccc1 (Ms-[dW]-Phe-aldehyde)
20 | 41 | – | – | – | – | CS(=O)(=O)NC(COCc1ccccc1)C(=O)N[C@H](C=O)Cc1ccccc1 (single isomer, unassigned)
